Assay results from patent publication US8003636B2, “Certain crystalline diphenylazetidinone hydrates, pharmaceutical compositions thereof and methods for their use” (Sanofi-Aventis Deutschland GmbH, priority 2007, dated 2011).
Blank lines part the entries; values can stand above or below the molecule they belong to.

Experiments:
[1] = Test of the dissolution rate (USP 27 paddle apparatus); format: physicochemical; conditions: for release [%]: 20 mg in 1000 ml 0.1% aqueous SDS, 37° C., 75 rpm paddle, mean of three
Description: The dissolution rate of the crystalline hydrates of the formula I was tested as follows: […]
The dissolution rate is measured in a standard apparatus (paddle) according to the US Pharmacopeia (USP 27) at 37° C. The stirrer speed is 75 rpm.
20 mg of the substance to be examined are added to 1000 ml of a 0.1% strength aqueous sodium dodecylsulfate (SDS) solution. After 15, 30, 45 and 60 minutes, samples of 20 ml are taken.
The portion dissolved is determined photometrically at 256 nm using a comparison solution. The measurement is carried out in 10 mm cuvettes using, for example, a Perkin Elmer Lambda 25 photometer. The samples are measured directly after removal of the samples. In each case, a mean is calculated from three determinations.
The comparison solution is prepared as follows: 2-3 mg of the batch used are dissolved in 2 ml of dimethylformamide in a measuring flask. The volume is then made up to 100.0 ml using 0.1% strength SDS solution.
The amorphous compound of the formula I used in Example 2 was compared to the crystalline compound of the formula I obtained in the same Example 2.

[2] = test system: Cholesterol absorption; test: Effect on cholesterol absorption + 3H-taurocholic acid elimination via fecal elimination; format: in vivo, NMRI mice; conditions: dose which doubles fecal elimination of TCA or cholesterol vs control group, peroral, feces collected over 24 h
Description: Effect on Cholesterol Absorption+^3H-Taurocholic Acid Elimination via Fecal Elimination in Mice, Rats or Hamsters
NMRI mice, Wistar rats or Golden Syrian hamsters (in groups of n=4-6) are kept with a standard diet (Altromin, Lage (Lippe), Germany) in metabolic cages. The afternoon prior to the administration of the radioactive tracers (^14C-cholesterol) the feed is withdrawn, and the animals are adapted to the cage wires.
In addition, 24 hours prior to the peroral administration of the test meal (^14C-cholesterol in Intralipid® 20, Pharmacia-Upjohn), the animals are labelled s.c. with ^3H-TCA (taurocholic acid) (for example 1 μCi/mouse to 5 μCi/rat).
Cholesterol absorption test: 0.25 ml/mouse Intralipid® 20 (Pharmacia-Upjohn) (spiked with 0.25 μCi ^14C-cholesterol in 0.1 mg of cholesterol) is administered perorally using a stomach tube. […]
The feces are collected over a period of 24 h: the fecal elimination of ^14C-cholesterol and 3H-taurocholic acid (TCA) is determined after 24 hours. […]
The total weight is determined, the sample is made up with water to a defined volume and then homogenized, an aliquot is evaporated to dryness and incinerated in an Oximate (Model 307, Packard, for the incineration of radioactively labelled samples): the amount of radioactive ^3H—H2O und ^14C—CO2 is extrapolated to the amount of ^3H-taurocholic acid or ^14C-cholesterol eliminated (dual isotope technique). […]

[3] = Water content on storage at 23° C./60% relative atmospheric humidity; format: physicochemical; conditions: for Water content (%): previously dried to 0.8% water
Description: The hydrate obtained in Example 2 was dried under reduced pressure at 50° C. until a water content of 0.8% had been reached. The crystalline product was stored at 23° C./60% relative atmospheric humidity.

[4] = storage time 0.5 h at 23° C./60% relative humidity
[5] = storage time 2 h at 23° C./60% relative humidity
[6] = storage time 4 h at 23° C./60% relative humidity
[7] = storage time 6 h at 23° C./60% relative humidity
[8] = storage time 24 h at 23° C./60% relative humidity

release [%] ([1]; 15 min): 30.0%
release [%] ([1]; 30 min): 41.3%
release [%] ([1]; 45 min): 44.7%
release [%] ([1]; 60 min): 46.2%
SMILES: COc1ccc([C@@H]2[C@@H](CC[C@H](O)c3ccc(F)cc3)C(=O)N2c2ccc(CNC(=O)CCCCCCCCCCC(=O)NC[C@H](O)[C@@H](O)[C@H](O)[C@H](O)CO)cc2)cc1 [Amorphous compound of the formula II, reference compound]

release [%] ([1]; 15 min, listed as Crystalline compound of the formula I): 88.0%
release [%] ([1]; 30 min, listed as Crystalline compound of the formula I): 90.0%
release [%] ([1]; 45 min, listed as Crystalline compound of the formula I): 94.6%
release [%] ([1]; 60 min, listed as Crystalline compound of the formula I): 98.7%
SMILES: COc1ccc([C@@H]2[C@@H](CC[C@H](O)c3ccc(F)cc3)C(=O)N2c2ccc(CNC(=O)CCCCCCCCCCC(=O)NC[C@H](O)[C@@H](O)[C@H](O)[C@H](O)CO)cc2)cc1 [Example 2]
amount in solution relative to the amorphous active ingredient ([1]; after 15 minutes): almost three times the amount of the amorphous active ingredient
ED200 value (fecal elimination [mg/mouse]) [2]: 0.01 mg/mouse

n (hydrate water per formula I) [3, 4]: 0.5
Water content (%) [3, 4]: 1.1%
n (hydrate water per formula I) [3, 5]: 1.09
Water content (%) [3, 5]: 2.4%
n (hydrate water per formula I) [3, 6]: 1.14
Water content (%) [3, 6]: 2.5%
n (hydrate water per formula I) [3, 7]: 1.09
Water content (%) [3, 7]: 2.4%
n (hydrate water per formula I) [3, 8]: 1.14
Water content (%) [3, 8]: 2.5%
SMILES: COc1ccc([C@@H]2[C@@H](CC[C@H](O)c3ccc(F)cc3)C(=O)N2c2ccc(CNC(=O)CCCCCCCCCCC(=O)NC[C@H](O)[C@@H](O)[C@H](O)[C@H](O)CO)cc2)cc1 [Example 6]
